Assay results from patent US12570655B2, “Cysteine covalent modifiers of AKT1 and uses thereof” (Terremoto Biosciences, Inc., priority 2023, dated 2026).
pIC50: −log10 of the molar value. Where two headings read alike, the source gives them in different places.

Assays:
Type in all cases: cell-based
AKT1 E17K = target: T1, AKT1 E17K (Homo sapiens, UniProt P31749, E17K); assay: Live cell AKT1 E17K target engagement by NanoBRET competitive probe displacement; details: HEK293 cells transfected with kinase-NanoLuciferase fusion, 2 h at 37° C.
T1 construct: expressed in transfected cells; host or cells: HEK293
T1 sequence (P31749 whole entry E17K, the tested form may be a part): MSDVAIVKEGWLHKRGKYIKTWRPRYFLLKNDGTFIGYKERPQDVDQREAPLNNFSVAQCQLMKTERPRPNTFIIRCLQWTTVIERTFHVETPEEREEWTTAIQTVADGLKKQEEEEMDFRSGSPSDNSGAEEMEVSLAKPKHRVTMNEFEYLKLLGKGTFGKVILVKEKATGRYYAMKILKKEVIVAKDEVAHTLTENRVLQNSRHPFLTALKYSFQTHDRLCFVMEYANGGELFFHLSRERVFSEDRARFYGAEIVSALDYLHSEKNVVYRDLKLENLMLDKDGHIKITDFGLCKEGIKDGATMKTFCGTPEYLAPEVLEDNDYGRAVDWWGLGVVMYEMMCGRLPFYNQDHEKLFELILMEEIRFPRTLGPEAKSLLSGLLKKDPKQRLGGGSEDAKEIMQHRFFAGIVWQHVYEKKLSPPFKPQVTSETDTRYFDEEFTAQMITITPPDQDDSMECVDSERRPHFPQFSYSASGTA
How it was run: (§1)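 IC50 fitted (Hill, log inhibitor vs response) to BRET signal, E600/E460 ratio, measured with extracellular NanoLuc inhibitor present. Intact transfected HEK293 cells bearing NanoLuc-tagged kinase were co-incubated 2 h, 37 °C, with compound dilution series and ~EC50 ATP-competitive fluorescent tracer.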

AKT2 = target: T2, AKT2 (Homo sapiens, UniProt P31751); assay: Live cell AKT2 target engagement by NanoBRET competitive probe displacement; details: HEK293 cells transfected with kinase-NanoLuciferase fusion, 2 h at 37° C.
T2 construct: expressed in transfected cells; host or cells: HEK293
T2 sequence (P31751 whole entry, the tested form may be a part): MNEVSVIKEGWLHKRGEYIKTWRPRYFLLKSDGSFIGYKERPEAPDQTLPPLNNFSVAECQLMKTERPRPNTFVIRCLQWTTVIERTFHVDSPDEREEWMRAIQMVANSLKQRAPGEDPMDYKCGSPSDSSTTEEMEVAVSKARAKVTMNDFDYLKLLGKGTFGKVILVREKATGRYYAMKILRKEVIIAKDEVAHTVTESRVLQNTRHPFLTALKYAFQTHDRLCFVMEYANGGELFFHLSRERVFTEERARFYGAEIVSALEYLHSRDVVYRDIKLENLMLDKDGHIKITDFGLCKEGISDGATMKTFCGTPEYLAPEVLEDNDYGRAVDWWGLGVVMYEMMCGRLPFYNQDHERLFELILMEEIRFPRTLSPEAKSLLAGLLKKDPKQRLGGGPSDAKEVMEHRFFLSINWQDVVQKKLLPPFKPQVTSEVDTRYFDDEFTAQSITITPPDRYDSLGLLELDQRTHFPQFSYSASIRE
How it was run: as §1

AKT1 WT = target: T3, AKT1 WT (Homo sapiens, UniProt P31749); assay: Live cell AKT1 WT target engagement by NanoBRET competitive probe displacement; details: HEK293 cells transfected with kinase-NanoLuciferase fusion, 2 h at 37° C.
T3 construct: expressed in transfected cells; host or cells: HEK293
T3 sequence (P31749 whole entry, the tested form may be a part): as the sequence (P31749 whole entry E17K, the tested form may be a part) above, with K17E counted along it
How it was run: as §1

[1] = tested on: LAPC4 prostate cancer cells; assay: Antiproliferative effects in LAPC4 cells (CellTiter Glo); details: LAPC4 cells (AKT1 E17K allele), read-out: LAPC4 proliferation IC50
How it was run: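 Growth inhibition was measured by CellTiter Glo ATP luminescence after 72 h compound exposure of 1,000 seeded cells/well. The cells were AKT1 E17K-expressing LAPC4 prostate cancer cells maintained in IMDM plus 12% FBS. IC50 values came from Hill-equation fits.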

`C=CC(=O)N1CC2CC1CCC2N[C@H]1CCc2cc(-n3c(-c4cccnc4N)nc4ccc(-n5cccn5)nc43)ccc21` (stereo partly drawn) [Example 294, 1-(2-(((S)-5-(2-(2-aminopyridin-3-yl)-5-(1H-pyrazol-1-yl)-3H-imidazo[4,5-b]pyridin-3-yl)-2,3-dihydro-1H-inden-1-yl)amino)-6-azabicyclo[3.2.1]octan-6-yl)prop-2-en-1-one] gave a pIC50 (AKT1 E17K) of 7.54, a pIC50 (AKT2) of 7.25 and a pIC50 (AKT1 WT) of 6.52. It also gave a pIC50 ([1]; Homo sapiens, LAPC4, 72 h) of 6.66.

In the case of `C=CC(=O)N1CCC(N[C@H]2CCc3cc(-n4c(-c5cccnc5N)nc5ccc(-n6cc(F)cn6)nc54)ccc32)CC1` [Example 254, (S)-1-(4-((5-(2-(2-aminopyridin-3-yl)-5-(4-fluoro-1H-pyrazol-1-yl)-3H-imidazo[4,5-b]pyridin-3-yl)-2,3-dihydro-1H-inden-1-yl)amino)piperidin-1-yl)prop-2-en-1-one], the pIC50 (AKT1 E17K) was 7.96, the pIC50 (AKT2) was 7.43 and the pIC50 (AKT1 WT) was 7.05. For the same molecule, the pIC50 ([1]; Homo sapiens, LAPC4, 72 h) was 7.03.

Molecule `C=CC(=O)N1C[C@@H]2C[C@H]1CC2N[C@H]1CCc2cc(-n3c(-c4cccnc4N)nc4ccc(-n5cccn5)nc43)ccc21` (single isomer, unassigned) [Example 136, 1-[(1S,4S,5*)-5-{[(1S)-5-[2-(2-aminopyridin-3-yl)-5-(pyrazol-1-yl)imidazo[4,5-b]pyridin-3-yl]-2,3-dihydro-1H-inden-1-yl]amino}-2-azabicyclo[2.2.1]heptan-2-yl]prop-2-en-1-one] has a pIC50 (AKT1 E17K) of 6.68, a pIC50 (AKT2) of 5.71 and a pIC50 (AKT1 WT) of 7.02. For the same molecule, the pIC50 ([1]; 72 h) was 6.28.

In the case of `C=CC(=O)N1CCC(N[C@H]2CCc3cc(-n4c(-c5cccnc5N)nc5ccc(-c6ncc(C)o6)nc54)ccc32)CC1` [Example 255, 1-(4-{[(1S)-5-[2-(2-aminopyridin-3-yl)-5-(5-methyl-1,3-oxazol-2-yl)imidazo[4,5-b]pyridin-3-yl]-2,3-dihydro-1H-inden-1-yl]amino}piperidin-1-yl)prop-2-en-1-one], the pIC50 (AKT1 E17K) was 7.48, the pIC50 (AKT2) was 6.75 and the pIC50 (AKT1 WT) was 6.26. For the same molecule, the pIC50 ([1]; Homo sapiens, LAPC4, 72 h) was 6.67.

`CC#CC(=O)N1CCC(N[C@H]2CCc3cc(-n4c(-c5cccnc5N)nc5ccc(-n6cccn6)nc54)ccc32)CC1` [Example 69, 1-(4-{[(1S)-5-[2-(2-aminopyridin-3-yl)-5-(pyrazol-1-yl)imidazo[4,5-b]pyridin-3-yl]-2,3-dihydro-1H-inden-1-yl]amino}piperidin-1-yl)but-2-yn-1-one] showed a pIC50 (AKT1 E17K) of 7.24, a pIC50 (AKT2) of 6.65 and a pIC50 (AKT1 WT) of 7.60. For the same molecule, the pIC50 ([1]; Homo sapiens, LAPC4, 72 h) was 6.45.

`C=CC(=O)N1CCC(N[C@H]2CCc3cc(-n4c(-c5cccnc5N)nc5ccc(N6CCN(C)CC6)nc54)ccc32)CC1` [Example 259, 1-(4-{[(1S)-5-[2-(2-aminopyridin-3-yl)-5-(4-methylpiperazin-1-yl)imidazo[4,5-b]pyridin-3-yl]-2,3-dihydro-1H-inden-1-yl]amino}piperidin-1-yl)prop-2-en-1-one] showed a pIC50 (AKT1 E17K) of 6.82, a pIC50 (AKT2) of 6.01 and a pIC50 (AKT1 WT) of 5.48. For the same molecule, the pIC50 ([1]; Homo sapiens, LAPC4, 72 h) was 5.82.

Work on `C=CC(=O)N1C[C@H]2COC[C@@H](C1)C2N[C@H]1CCc2cc(-n3c(-c4cccnc4N)nc4ccc(-n5cccn5)nc43)ccc21` (single isomer, unassigned) [Example 73, 1-((1R,5S,9*)-9-(((S)-5-(2-(2-aminopyridin-3-yl)-5-(1H-pyrazol-1-yl)-3H-imidazo[4,5-b]pyridin-3-yl)-2,3-dihydro-1H-inden-1-yl)amino)-3-oxa-7-azabicyclo[3.3.1]nonan-7-yl)prop-2-en-1-one] yielded a pIC50 (AKT1 E17K) of 7.72, a pIC50 (AKT2) of 7.06 and a pIC50 (AKT1 WT) of 7.80. It also gave a pIC50 ([1]; 72 h) of 7.13.

`C=CC(=O)N(C)Cc1ccccc1C(=O)N[C@H]1CCc2cc(-n3c(-c4cccnc4N)nc4ccc(-n5cccn5)nc43)ccc21` [Example 265, (S)-N-(5-(2-(2-aminopyridin-3-yl)-5-(1H-pyrazol-1-yl)-3H-imidazo[4,5-b]pyridin-3-yl)-2,3-dihydro-1H-inden-1-yl)-2-((N-methylacrylamido)methyl)benzamide] showed a pIC50 (AKT1 E17K) of 7.99, a pIC50 (AKT2) of 7.61 and a pIC50 (AKT1 WT) of 7.05. It also gave a pIC50 ([1]; Homo sapiens, LAPC4, 72 h) of 7.00.

For `C=CC(=O)N1CCC(N[C@H]2CCc3cc(-n4c(-c5cccnc5N)nc5ccc(C6CC6)nc54)ccc32)C(F)C1` (single isomer, unassigned) [Example 177, 1-((3*,4*)-4-(((S)-5-(2-(2-aminopyridin-3-yl)-5-cyclopropyl-3H-imidazo[4,5-b]pyridin-3-yl)-2,3-dihydro-1H-inden-1-yl)amino)-3-fluoropiperidin-1-yl)prop-2-en-1-one], the pIC50 (AKT1 E17K) was 7.43, the pIC50 (AKT2) was 6.94 and the pIC50 (AKT1 WT) was 5.82. For the same molecule, the pIC50 ([1]; 72 h) was 6.38.

With `C=CC(=O)N1CC2(CCCC(N[C@H]3CCc4cc(-n5c(-c6cccnc6N)nc6ccc(-n7cccn7)nc65)ccc43)C2)C1` (single isomer, unassigned) [Example 79, 1-((*)-6-(((S)-5-(2-(2-aminopyridin-3-yl)-5-(1H-pyrazol-1-yl)-3H-imidazo[4,5-b]pyridin-3-yl)-2,3-dihydro-1H-inden-1-yl)amino)-2-azaspiro[3.5]nonan-2-yl)prop-2-en-1-one] the pIC50 (AKT1 E17K) was 7.85, the pIC50 (AKT2) was 7.57 and the pIC50 (AKT1 WT) was 7.92. The pIC50 ([1]; Homo sapiens, LAPC4, 72 h) was 7.77.

Molecule `C=CC(=O)N1CCC(N(C)[C@H]2CCc3cc(-n4c(-c5cccnc5N)nc5ccc(-n6cccn6)nc54)ccc32)CC1` [Example 67, (S)-1-(4-((5-(2-(2-aminopyridin-3-yl)-5-(1H-pyrazol-1-yl)-3H-imidazo[4,5-b]pyridin-3-yl)-2,3-dihydro-1H-inden-1-yl)(methyl)amino)piperidin-1-yl)prop-2-en-1-one] has a pIC50 (AKT1 E17K) of 7.06, a pIC50 (AKT2) of 6.97 and a pIC50 (AKT1 WT) of 7.66. The pIC50 ([1]; Homo sapiens, LAPC4, 72 h) was 6.54.

Work on `C=CC(=O)N1CCC(N[C@H]2CCc3cc(-n4c(-c5cccnc5N)nc5ccc(-n6cccn6)nc54)ccc32)C(F)C1` (single isomer, unassigned) [Example 103, 1-((3*,4*)-4-(((S)-5-(2-(2-aminopyridin-3-yl)-5-(1H-pyrazol-1-yl)-3H-imidazo[4,5-b]pyridin-3-yl)-2,3-dihydro-1H-inden-1-yl)amino)-3-fluoropiperidin-1-yl)prop-2-en-1-one] yielded a pIC50 (AKT1 E17K) of 7.10, a pIC50 (AKT2) of 6.26 and a pIC50 (AKT1 WT) of 7.71. For the same molecule, the pIC50 ([1]; 72 h) was 6.50.

Molecule `C=CC(=O)N1CCC(N[C@H]2CCc3cc(-n4c(-c5ccc(F)cc5)nc5ccc(-n6cccn6)nc54)ccc32)CC1` [Example 247, 1-(4-{[(1S)-5-[2-(4-fluorophenyl)-5-(pyrazol-1-yl)imidazo[4,5-b]pyridin-3-yl]-2,3-dihydro-1H-inden-1-yl]amino}piperidin-1-yl)prop-2-en-1-one] has a pIC50 (AKT1 E17K) of 6.95, a pIC50 (AKT2) of 6.33 and a pIC50 (AKT1 WT) of 5.51. The pIC50 ([1]; Homo sapiens, LAPC4, 72 h) was 5.77.

Work on `C=CC(=O)N1CCC(N[C@@H]2c3ccc(-n4c(-c5ccccc5F)nc5ccc(-n6cccn6)nc54)cc3CC2F)CC1` (single isomer, unassigned) [Example 300, 1-(4-(((1R,2*)-2-fluoro-5-(2-(2-fluorophenyl)-5-(1H-pyrazol-1-yl)-3H-imidazo[4,5-b]pyridin-3-yl)-2,3-dihydro-1H-inden-1-yl)amino)piperidin-1-yl)prop-2-en-1-one] yielded a pIC50 (AKT1 E17K) of 8.04, a pIC50 (AKT2) of 7.46 and a pIC50 (AKT1 WT) of 5.63. For the same molecule, the pIC50 ([1]; 72 h) was 6.41.

With `C=C(C)C(=O)Nc1ccccc1C(=O)N[C@H]1CCc2cc(-n3c(-c4cccnc4N)nc4ccc(-n5cccn5)nc43)ccc21` [Example 17, (S)-N-(5-(2-(2-aminopyridin-3-yl)-5-(1H-pyrazol-1-yl)-3H-imidazo[4,5-b]pyridin-3-yl)-2,3-dihydro-1H-inden-1-yl)-2-methacrylamidobenzamide] the pIC50 (AKT1 E17K) was 6.84, the pIC50 (AKT2) was 5.99 and the pIC50 (AKT1 WT) was 7.37. It also gave a pIC50 ([1]; Homo sapiens, LAPC4, 72 h) of 5.63.

`CC#CC(=O)Nc1cccc(C(=O)N[C@H]2CCc3cc(-n4c(-c5cccnc5N)nc5ccc(-n6cccn6)nc54)ccc32)c1` [Example 12, (S)-N-(5-(2-(2-aminopyridin-3-yl)-5-(1H-pyrazol-1-yl)-3H-imidazo[4,5-b]pyridin-3-yl)-2,3-dihydro-1H-inden-1-yl)-3-(but-2-ynamido)benzamide] gave a pIC50 (AKT1 E17K) of 7.89, a pIC50 (AKT2) of 6.89 and a pIC50 (AKT1 WT) of 7.95. The pIC50 ([1]; Homo sapiens, LAPC4, 72 h) was 6.46.

In the case of `C=CS(=O)(=O)N1CCC(N[C@H]2CCc3cc(-n4c(-c5cccnc5N)nc5ccc(-n6cccn6)nc54)ccc32)CC1` [Example 61, 3-{3-[(1S)-1-{[1-(ethenesulfonyl)piperidin-4-yl]amino}-2,3-dihydro-1H-inden-5-yl]-5-(pyrazol-1-yl)imidazo[4,5-b]pyridin-2-yl}pyridin-2-amine], the pIC50 (AKT1 E17K) was 7.54, the pIC50 (AKT2) was 7.28 and the pIC50 (AKT1 WT) was 7.72. The pIC50 ([1]; Homo sapiens, LAPC4, 72 h) was 7.14.

Work on `Nc1ncccc1-c1nc2ccc(-n3cccn3)nc2n1-c1ccc2c(c1)CC[C@@H]2NC1CCN(C(=O)C(F)Cl)CC1` (stereo partly drawn) [Example 173, 1-(4-{[(1S)-5-[2-(2-aminopyridin-3-yl)-5-(pyrazol-1-yl)imidazo[4,5-b]pyridin-3-yl]-2,3-dihydro-1H-inden-1-yl]amino}piperidin-1-yl)-2-chloro-2-fluoroethanone] yielded a pIC50 (AKT1 E17K) of 7.25, a pIC50 (AKT2) of 6.49 and a pIC50 (AKT1 WT) of 5.87. The pIC50 ([1]; Homo sapiens, LAPC4, 72 h) was 6.13.

`C=CC(=O)N1CCC(N[C@@H]2c3ccc(-n4c(-c5cccnc5N)nc5ccc(-n6cccn6)nc54)cc3CC2F)CC1C(F)F` (single isomer, unassigned) [Example 304, 1-((2*,4*)-4-(((1R,2*)-5-(2-(2-aminopyridin-3-yl)-5-(1H-pyrazol-1-yl)-3H-imidazo[4,5-b]pyridin-3-yl)-2-fluoro-2,3-dihydro-1H-inden-1-yl)amino)-2-(difluoromethyl)piperidin-1-yl)prop-2-en-1-one] was tested, and the pIC50 (AKT1 E17K) was 7.94, the pIC50 (AKT2) was 7.44 and the pIC50 (AKT1 WT) was 6.58. The pIC50 ([1]; 72 h) was 6.19.
